Test results taken from BigSolDB 2.1.

## CC(=O)C1C(=O)C=C(C)OC1=O (centres undefined)
In 2-butanone, 288.35 K
  solubility (mole fraction): 0.0125
In 2-butanone, 292.15 K
  solubility (mole fraction): 0.0153
In 2-butanone, 296.45 K
  solubility (mole fraction): 0.0165
In 2-butanone, 300.35 K
  solubility (mole fraction): 0.0196
In 2-butanone, 304.05 K
  solubility (mole fraction): 0.0227
In 2-butanone, 308.05 K
  solubility (mole fraction): 0.0285
In 2-butanone, 312.15 K
  solubility (mole fraction): 0.0315
In 2-butanone, 315.75 K
  solubility (mole fraction): 0.037
In DMAc, 288.35 K
  solubility (mole fraction): 0.0941
In DMAc, 292.15 K
  solubility (mole fraction): 0.111
In DMAc, 296.45 K
  solubility (mole fraction): 0.12
In DMAc, 300.45 K
  solubility (mole fraction): 0.135
In DMAc, 304.45 K
  solubility (mole fraction): 0.15
In DMAc, 308.25 K
  solubility (mole fraction): 0.168
In DMAc, 312.15 K
  solubility (mole fraction): 0.19
In DMAc, 316.35 K
  solubility (mole fraction): 0.205
In DMF, 288.5 K
  solubility (mole fraction): 0.0744
In DMF, 292.45 K
  solubility (mole fraction): 0.0857
In DMF, 296.35 K
  solubility (mole fraction): 0.093
In DMF, 299.95 K
  solubility (mole fraction): 0.105
In DMF, 304.45 K
  solubility (mole fraction): 0.123
In DMF, 307.85 K
  solubility (mole fraction): 0.139
In DMF, 312.35 K
  solubility (mole fraction): 0.162
In DMF, 315.85 K
  solubility (mole fraction): 0.181
In DMSO, 288.15 K
  solubility (mole fraction): 0.0267
In DMSO, 292.15 K
  solubility (mole fraction): 0.0314
In DMSO, 296.15 K
  solubility (mole fraction): 0.0383
In DMSO, 300.15 K
  solubility (mole fraction): 0.0462
In DMSO, 304.15 K
  solubility (mole fraction): 0.0544
In DMSO, 308.15 K
  solubility (mole fraction): 0.0599
In DMSO, 312.15 K
  solubility (mole fraction): 0.0738
In DMSO, 316.15 K
  solubility (mole fraction): 0.0874
In acetone, 288.15 K
  solubility (mole fraction): 0.0477
In acetone, 291.85 K
  solubility (mole fraction): 0.0547
In acetone, 296.15 K
  solubility (mole fraction): 0.0587
In acetone, 300.25 K
  solubility (mole fraction): 0.0695
In acetone, 304.15 K
  solubility (mole fraction): 0.0812
In acetone, 308.15 K
  solubility (mole fraction): 0.0964
In acetone, 312.05 K
  solubility (mole fraction): 0.111
In acetone, 316.25 K
  solubility (mole fraction): 0.13
In acetonitrile, 288.35 K
  solubility (mole fraction): 0.039
In acetonitrile, 292.35 K
  solubility (mole fraction): 0.0489
In acetonitrile, 296.25 K
  solubility (mole fraction): 0.0557
In acetonitrile, 300.35 K
  solubility (mole fraction): 0.0634
In acetonitrile, 304.05 K
  solubility (mole fraction): 0.0733
In acetonitrile, 308.15 K
  solubility (mole fraction): 0.0887
In acetonitrile, 312.65 K
  solubility (mole fraction): 0.107
In acetonitrile, 316.25 K
  solubility (mole fraction): 0.123
In ethanol, 288.25 K
  solubility (mole fraction): 0.00512
In ethanol, 291.95 K
  solubility (mole fraction): 0.00652
In ethanol, 296.25 K
  solubility (mole fraction): 0.00812
In ethanol, 300.35 K
  solubility (mole fraction): 0.00941
In ethanol, 303.65 K
  solubility (mole fraction): 0.0109
In ethanol, 308.55 K
  solubility (mole fraction): 0.0135
In ethanol, 312.65 K
  solubility (mole fraction): 0.0176
In ethanol, 316.15 K
  solubility (mole fraction): 0.0217
In ethyl acetate, 288.45 K
  solubility (mole fraction): 0.0499
In ethyl acetate, 292.45 K
  solubility (mole fraction): 0.0571
In ethyl acetate, 295.95 K
  solubility (mole fraction): 0.0646
In ethyl acetate, 300.25 K
  solubility (mole fraction): 0.0714
In ethyl acetate, 304.05 K
  solubility (mole fraction): 0.081
In ethyl acetate, 307.95 K
  solubility (mole fraction): 0.0938
In ethyl acetate, 312.25 K
  solubility (mole fraction): 0.109
In ethyl acetate, 316.35 K
  solubility (mole fraction): 0.128
In ethyl formate, 288.05 K
  solubility (mole fraction): 0.0536
In ethyl formate, 291.95 K
  solubility (mole fraction): 0.061
In ethyl formate, 296.15 K
  solubility (mole fraction): 0.067
In ethyl formate, 300.05 K
  solubility (mole fraction): 0.0765
In ethyl formate, 304.15 K
  solubility (mole fraction): 0.0894
In ethyl formate, 308.45 K
  solubility (mole fraction): 0.104
In ethyl formate, 312.45 K
  solubility (mole fraction): 0.119
In ethyl formate, 315.85 K
  solubility (mole fraction): 0.135
In isopropanol, 288.05 K
  solubility (mole fraction): 0.00448
In isopropanol, 292.35 K
  solubility (mole fraction): 0.0056
In isopropanol, 296.55 K
  solubility (mole fraction): 0.00709
In isopropanol, 300.15 K
  solubility (mole fraction): 0.00876
In isopropanol, 304.65 K
  solubility (mole fraction): 0.0105
In isopropanol, 308.15 K
  solubility (mole fraction): 0.0127
In isopropanol, 312.35 K
  solubility (mole fraction): 0.0168
In isopropanol, 315.65 K
  solubility (mole fraction): 0.0202
In methanol, 288.05 K
  solubility (mole fraction): 0.00588
In methanol, 292.35 K
  solubility (mole fraction): 0.00716
In methanol, 296.05 K
  solubility (mole fraction): 0.00781
In methanol, 300.15 K
  solubility (mole fraction): 0.0104
In methanol, 303.95 K
  solubility (mole fraction): 0.0113
In methanol, 308.55 K
  solubility (mole fraction): 0.0149
In methanol, 312.15 K
  solubility (mole fraction): 0.0174
In methanol, 316.05 K
  solubility (mole fraction): 0.022
In n-pentanol, 287.75 K
  solubility (mole fraction): 0.00604
In n-pentanol, 291.95 K
  solubility (mole fraction): 0.00758
In n-pentanol, 296.25 K
  solubility (mole fraction): 0.00959
In n-pentanol, 300.35 K
  solubility (mole fraction): 0.0117
In n-pentanol, 304.15 K
  solubility (mole fraction): 0.0148
In n-pentanol, 308.35 K
  solubility (mole fraction): 0.0189
In n-pentanol, 312.15 K
  solubility (mole fraction): 0.0233
In n-pentanol, 315.95 K
  solubility (mole fraction): 0.0284
In n-propanol, 287.95 K
  solubility (mole fraction): 0.00523
In n-propanol, 292.65 K
  solubility (mole fraction): 0.00657
In n-propanol, 296.35 K
  solubility (mole fraction): 0.00836
In n-propanol, 300.55 K
  solubility (mole fraction): 0.00974
In n-propanol, 304.35 K
  solubility (mole fraction): 0.0118
In n-propanol, 308.15 K
  solubility (mole fraction): 0.0143
In n-propanol, 312.65 K
  solubility (mole fraction): 0.0187
In n-propanol, 316.35 K
  solubility (mole fraction): 0.0224
